Data: paper PMC6511062, “Preclinical candidate for the treatment of visceral leishmaniasis that acts through proteasome inhibition” (Proceedings of the National Academy of Sciences of the …, 2019)
Where “and” joins values, the source holds several entries; their conditions need not be identical. Identical values can stand only once. Like-named read-outs stand apart in the source and are kept apart here.

Key:
[1] = system: clinically-relevant Leishmania strains; experiment: Activity in clinically-relevant Leishmania strains; type: cell-based
Text: Strain Leishmania EC50 (µM) Host Cell EC50 (µM)
Results from one or two (both values shown) biological replicates. […]

[2] = system: L. donovani (LV9); experiment: Mouse model of VL (in vivo efficacy in female Balb/C mice); set-up: species or system Leishmania donovani; conditions: 50 mg/kg b.i.d. (10 days PO)
[3] = system: Leishmania tarentolae; experiment: Potency against L. tarentolae; type: cell-based
Text: The potency of 8 against the nonpathogenic Leishmania spp. […] Apo (3.3 Å) and 8-liganded (2.8 Å) (Fig. 5A) L. tarentolae 20S proteasome structures were obtained using single-particle cryo-EM (SI Appendix, Figs. S11–S15 and Table S9).

[4] = system: TA98; experiment: Ames test, strain TA98
Experimental: oxidative metabolism system (S9-mix). The maximum concentration tested and […]
Compound 7a was tested in a bacterial mutation screening assay (Ames test) with Salmonella typhimurium TA1535, TA1537, TA98, TA100 and Escherichia coli WP2uvrA(pKM101) in the presence and absence of an exogenous mammalian […]
The bacterial mutation screening assay was a plate incorporation test carried out as previously described15 and according to current methodology. […]

[5] = system: L. donovani (LV9); experiment: Mouse model of VL (in vivo efficacy in female Balb/C mice); set-up: species or system Leishmania donovani
Experimental: Infected mice were dosed at 3, 10, or 25 mg/kg orally twice a day for 10 consecutive days. Two days after the termination of treatment, mice were euthanized, and the parasite burdens in their livers were determined.
Peripheral blood samples were obtained at 5, 15, 30 min, 1, 2, 4, 6 ,8 and 24 h after intravenous administration and 15, 30, 45 min,1, 2, 4, 6, 8 and 24 h after oral administration. Blood was 1/2 diluted with milliQ water and immediately frozen on dry ice until analysis. Quantification was performed by means of LC-MS/MS (API4000), with a lower limit of quantification of 1 ng/mL. […]
Data analysis and calculation of pharmacokinetic parameters was performed using Phoenix, WinNonLin Version 6.3. […]
(§1) For both intravenous and oral administration, the systemic exposures were determined by calculating the area under the blood concentration time curve (AUC) from the start of dosing to the last observed quantifiable concentration (AUC0-t) by using the linear up-log down trapezoidal rule. The slope of the terminal elimination phase was estimated by linear regression of the terminal data points (minimum 3 points) from a natural log concentration versus time plot of the data. The half-life (t1/2) of the terminal elimination phase was calculated as t1/2 = 0.693/λ.
7. In vivo efficacy in female Balb/C mice
To establish infection in mice, sodium stibogluconate-sensitive L. donovani (LV9, WHO designation: MHOM/ET/67/HU3) amastigotes were isolated from the spleen of a heavily infected donor hamster (Janvier, France)7. An inoculum containing 1.0 x 10^8 amastigotes/mL in Dulbecco’s modified eagles medium (high glucose) was prepared […]
and female BalbC mice (Harlan, UK) then infected intravenously via the tail vein with a 0.2 mL bolus (equivalent to ~2.0 x 10^7 amastigotes). Infection was left to establish for […]
daily orally as a suspension in 0.5% hydroxypropylmethylcellulose, 0.4% tween 80 and 0.5% benzyl alcohol. With twice daily regimens, the second daily dose was administered approximately 8 h following the first dose. Dose regimens evaluated were:
1. 50 mg/kg twice daily for 5 days
2. 25 mg/kg, 10 mg/kg and 3 mg/kg twice daily for 10 days
3. 25 mg/kg once daily for 10 days
Miltefosine, as the only oral treatment for visceral leishmaniasis, was used as a […]

[6] = Pharmacokinetics in male Sprague Dawley rats; type: in vivo; conditions: rat
Experimental: Male Sprague Dawley rats (n=3) were dosed either intravenously at a target dose of 3 mg/kg or orally at a target dose of 10, 30, 100 and 300 mg/kg. Following discrete intravenous tail vein dosing from a solution of 5% DMSO/20% kleptose in saline, serial blood samples (~10 µl) were taken via lateral tail vein at 0.01, 0.05, 0.08, 0.25, 0.5, 1, 2, 4, 6, 8 and 24 h post dose and 1/9 diluted with miliQ water, frozen on dry ice, then stored at approximately –20 °C or below until analysis.
Following discrete oral gavage dosing from a suspension of 1% methyl cellulose at target doses of 10, 30, 100 and 300 mg/kg, respectively, serial blood samples (10 µl) were taken via lateral tail vein at 0.08, 0.25, 0.5, 0.75, 1, 2, 4, 6, 8 and 24 h post dose and 1/9 diluted with miliQ water, frozen on dry ice, then stored at approximately –20°C […]
Samples were analyzed for parent compound using a method based on protein precipitation followed by UPLC-MS/MS.
Pharmacokinetic parameters, namely clearance (CL), volume of distribution at steady state (Vss) and bioavailability (F%), were estimated using Phoenix, WinNonLin 6.3.
Data analysis and calculation of pharmacokinetic parameters was performed using Phoenix, WinNonLin Version 6.3.
Following the intravenous administration, the whole blood clearance was calculated by determining the dose administered to each animal and dividing by the AUC0-∞ . The estimate of the volume of distribution at steady state (VSS) was calculated as MRT*CL, where MRT is the mean residence time, calculated by AUMC0-∞ /AUC0-∞.
as §1, with “0.693/λ. […]” for “0.693/λ.”

[7] = 10-d treatment orally twice a day
[8] = male, Sprague Dawley, whole blood, 3 mg/kg iv bolus

Structure (SMILES): O=C(Nc1ccc(F)c(-c2ccn3c(N4CCOCC4)cnc3n2)c1)N1CCCC1 [Compound 8]
- EC50 ([1]; Leishmania, in vitro, clinical strains incl. LV9, SUKA001, DD8-WT, BHU1, read-out: EC50 against clinical strains): ~1000 nM
- EC50 ([1]; Leishmania, strain MHOM/ET/67/HU3 (LV9), read-out: Leishmania EC50): 400 nM
- EC50 ([1]; Leishmania, strain MHOM/IN/80/DD8, read-out: Leishmania EC50): 1600 nM
- EC50 ([1]; Leishmania, strain MHOM/IN/2002/BHU1, read-out: Leishmania EC50): 600 nM
- EC50 ([1]; Leishmania, strain SUKA001, read-out: Leishmania EC50): 500 nM
- EC50 ([1]; strain MHOM/ET/67/HU3 (LV9), read-out: Leishmania EC50): 800 nM
- Reduction in parasite burden (compared to the vehicle control group) [2]: 99.1%
- EC50 [3]: 40 nM
- Mean revertants per plate ([4]; with S9-mix, dose level 50 per plate): 23.0
- Mean revertants per plate ([4]; with S9-mix, dose level 150 per plate): 25.0
- Mean revertants per plate ([4]; with S9-mix, dose level 500 per plate): 30.0
- Mean revertants per plate ([4]; with S9-mix, dose level 1500 per plate): 24.5
- Mean revertants per plate ([4]; with S9-mix, dose level 2500 per plate): 25.5
- Mean revertants per plate ([4]; with S9-mix, dose level 5000 per plate): 25.0
- Mean revertants per plate ([4]; without S9-mix, dose level 50 per plate): 22.5
- Mean revertants per plate ([4]; without S9-mix, dose level 150 per plate): 19.0
- Mean revertants per plate ([4]; without S9-mix, dose level 500 per plate): 14.5
- Mean revertants per plate ([4]; without S9-mix, dose level 1500 per plate): 19.5
- Mean revertants per plate ([4]; without S9-mix, dose level 2500 per plate): 16.5
- Mean revertants per plate ([4]; without S9-mix, dose level 5000 per plate): 18.0
- Reduction in parasite burden (compared to the vehicle control group) ([5]; 3 mg/kg b.i.d. (10 days PO)): 18.4%
- Reduction in parasite burden (compared to the vehicle control group) ([5]; 10 mg/kg b.i.d. (10 days PO)): 56.9%
- Reduction in parasite burden (compared to the vehicle control group) ([5]; 25 mg/kg b.i.d. (10 days PO)): 98.1% and > 95%
- exposure giving >95% parasite burden reduction ([5]; 25 mg/kg twice a day for 10 days): 27 μg/h per mililiter
- Reduction in parasite burden (compared to the vehicle control group) ([5]; 25 mg/kg u.i.d. (10 days PO)): 8.8%
- ED90 [5, 7]: 16 mg/kg
- ED99 [5, 7]: 30 mg/kg
- ED50 ([5]; Leishmania donovani, po, 240 h, 10-d treatment orally twice a day): 8.9 mg/kg
- bioavailability ([6]; male, Sprague Dawley, whole blood, po, 10 mg/kg, SD male rat, 10 mg/kg po, read-out: F (oral bioavailability)): 36%
- clearance [6, 8]: 17 ± 5.2 mL/min/kg
- half-life [6, 8]: 42 ± 8.4 min
- Vd ([6]; male, Sprague Dawley, whole blood, 3 mg/kg iv bolus, read-out: Vss): 1 L/kg
- blood clearance [6]: 17 mL/min per kilogram
- Cl (%LBF) ([6]; 3 mg/kg iv): 22%
